Assay results from ChEMBL document CHEMBL1140826, “Synthesis of benzamide derivatives as TRPV1 antagonists” (Bioorg Med Chem Lett, 2008).

Molecular target: Transient receptor potential cation channel subfamily V member 1 (Rattus norvegicus, UniProt O35433)
Experiment: Antagonist activity at rat TRPV1 assessed as inhibition of capsaicin-induced calcium mobilization
Assay type: functional
Conditions: not given

Chain of Transient receptor potential cation channel subfamily V member 1 (Rattus norvegicus, UniProt O35433) (O35433 whole entry): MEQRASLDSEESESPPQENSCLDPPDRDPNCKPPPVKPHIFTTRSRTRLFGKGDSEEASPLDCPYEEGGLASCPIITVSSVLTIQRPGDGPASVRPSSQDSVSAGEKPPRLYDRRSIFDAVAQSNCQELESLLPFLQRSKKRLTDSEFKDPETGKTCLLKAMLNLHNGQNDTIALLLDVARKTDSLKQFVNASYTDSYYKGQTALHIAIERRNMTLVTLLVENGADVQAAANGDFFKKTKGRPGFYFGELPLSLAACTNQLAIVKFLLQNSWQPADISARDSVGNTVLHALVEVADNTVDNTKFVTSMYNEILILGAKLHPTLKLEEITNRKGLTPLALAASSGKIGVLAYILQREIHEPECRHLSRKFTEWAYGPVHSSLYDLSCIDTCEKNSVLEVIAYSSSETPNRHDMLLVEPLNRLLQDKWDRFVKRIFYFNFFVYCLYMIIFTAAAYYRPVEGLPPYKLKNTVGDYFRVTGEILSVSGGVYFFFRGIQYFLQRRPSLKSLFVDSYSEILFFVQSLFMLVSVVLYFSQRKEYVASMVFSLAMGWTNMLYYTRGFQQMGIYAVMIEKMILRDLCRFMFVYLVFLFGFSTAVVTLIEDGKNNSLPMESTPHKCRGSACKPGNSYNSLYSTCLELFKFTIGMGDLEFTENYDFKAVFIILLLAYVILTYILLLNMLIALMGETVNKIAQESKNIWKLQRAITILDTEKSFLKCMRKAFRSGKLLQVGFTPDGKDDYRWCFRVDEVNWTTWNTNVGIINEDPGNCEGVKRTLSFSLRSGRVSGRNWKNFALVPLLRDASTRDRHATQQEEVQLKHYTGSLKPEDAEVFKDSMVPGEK

IC50 | SMILES
5200 nM | COc1ccc2[nH]cc(C(C)CNC(=O)c3ccc(OC(F)(F)F)cc3)c2c1 (centres undefined)
260 nM | CC(C)(C)c1ccc(NC(=O)c2ccc(OC(F)(F)C(F)F)cc2)cc1
410 nM | Cn1c2c(c3cc(O)ccc31)C(CNC(=O)c1ccc(OC(F)(F)F)cc1)CCC2 (centres undefined)
44 nM | CC(CNC(=O)c1ccc(OC(F)(F)F)cc1)c1ccc(O)c2ccc(O)cc12 (racemic)

Tested on: not listed separately
Experiment: Half life in po dosed rat administered through 0.1% MC solution
Assay type: ADME, organism-based
Conditions: in vivo

half-life | SMILES
1.2 h | Cn1c2c(c3cc(O)ccc31)C(CNC(=O)c1ccc(OC(F)(F)F)cc1)CCC2 (centres undefined)

Organism: Rattus norvegicus
Experiment: Effect on capsaicin-induced hypothermia in rat
Assay type: functional
Conditions: not given

SMILES | ED50
CC(C)(C)c1ccc(NC(=O)c2ccc(OC(F)(F)C(F)F)cc2)cc1 | 4.2 mg/kg

Tested on: not listed separately
Experiment: Oral bioavailability in rat administered through PEG400
Assay type: ADME, organism-based
Conditions: in vivo

bioavailability | SMILES
30.2% | Cn1c2c(c3cc(O)ccc31)C(CNC(=O)c1ccc(OC(F)(F)F)cc1)CCC2 (centres undefined)

Tested on: not listed separately
Experiment: Oral bioavailability in rat administered through 0.1% MC solution
Assay type: ADME, organism-based
Conditions: in vivo

bioavailability | SMILES
0.7% | Cn1c2c(c3cc(O)ccc31)C(CNC(=O)c1ccc(OC(F)(F)F)cc1)CCC2 (centres undefined)

Tested on: Mus musculus
Experiment: Effect on carrageenan-induced thermal hyperalgesia in mouse at 30 mg/kg, ip
Assay type: functional
Conditions: route intraperitoneal

SMILES | inhibition in vivo at 30 mg/kg
CC(C)(C)c1ccc(NC(=O)c2ccc(OC(F)(F)C(F)F)cc2)cc1 | 52%

Organism: Mus musculus
Experiment: Effect on capsaicin-induced licking in mouse
Assay type: functional
Conditions: not given

SMILES | ED50
CC(C)(C)c1ccc(NC(=O)c2ccc(OC(F)(F)C(F)F)cc2)cc1 | 3.8 mg/kg

Tested on: not listed separately
Experiment: Half life in iv dosed rat
Assay type: ADME, organism-based
Conditions: in vivo

half-life | SMILES
2.1 h | Cn1c2c(c3cc(O)ccc31)C(CNC(=O)c1ccc(OC(F)(F)F)cc1)CCC2 (centres undefined)

Tested on: Rattus norvegicus
Experiment: Effect on carrageenan-induced thermal hyperalgesia in rat at 30 mg/kg, ip
Assay type: functional
Conditions: route intraperitoneal

SMILES | inhibition in vivo at 30 mg/kg
CC(C)(C)c1ccc(NC(=O)c2ccc(OC(F)(F)C(F)F)cc2)cc1 | 52%

Tested on: Mus musculus
Experiment: Reduction of rectal temperature in mouse CCI model at 100 mg/kg, ip
Assay type: functional
Conditions: route intraperitoneal

SMILES | inhibition in vivo at 100 mg/kg
CC(C)(C)c1ccc(NC(=O)c2ccc(OC(F)(F)C(F)F)cc2)cc1 | 59%

Tested on: Rattus norvegicus
Experiment: Reduction of rectal temperature in rat CCI model at 100 mg/kg, ip
Assay type: functional
Conditions: route intraperitoneal

SMILES | inhibition in vivo at 100 mg/kg
CC(C)(C)c1ccc(NC(=O)c2ccc(OC(F)(F)C(F)F)cc2)cc1 | 59%

Tested on: not listed separately
Experiment: Half life in po dosed rat administered through PEG400
Assay type: ADME, organism-based
Conditions: in vivo

half-life | SMILES
2.1 h | Cn1c2c(c3cc(O)ccc31)C(CNC(=O)c1ccc(OC(F)(F)F)cc1)CCC2 (centres undefined)

Organism: Mus musculus
Experiment: Effect on capsaicin-induced hypothermia in mouse
Assay type: functional
Conditions: not given

SMILES | ED50
CC(C)(C)c1ccc(NC(=O)c2ccc(OC(F)(F)C(F)F)cc2)cc1 | 4.5 mg/kg

Molecular target: Transient receptor potential cation channel subfamily V member 1 (Homo sapiens, UniProt Q8NER1)
Sequence (Q8NER1 whole entry): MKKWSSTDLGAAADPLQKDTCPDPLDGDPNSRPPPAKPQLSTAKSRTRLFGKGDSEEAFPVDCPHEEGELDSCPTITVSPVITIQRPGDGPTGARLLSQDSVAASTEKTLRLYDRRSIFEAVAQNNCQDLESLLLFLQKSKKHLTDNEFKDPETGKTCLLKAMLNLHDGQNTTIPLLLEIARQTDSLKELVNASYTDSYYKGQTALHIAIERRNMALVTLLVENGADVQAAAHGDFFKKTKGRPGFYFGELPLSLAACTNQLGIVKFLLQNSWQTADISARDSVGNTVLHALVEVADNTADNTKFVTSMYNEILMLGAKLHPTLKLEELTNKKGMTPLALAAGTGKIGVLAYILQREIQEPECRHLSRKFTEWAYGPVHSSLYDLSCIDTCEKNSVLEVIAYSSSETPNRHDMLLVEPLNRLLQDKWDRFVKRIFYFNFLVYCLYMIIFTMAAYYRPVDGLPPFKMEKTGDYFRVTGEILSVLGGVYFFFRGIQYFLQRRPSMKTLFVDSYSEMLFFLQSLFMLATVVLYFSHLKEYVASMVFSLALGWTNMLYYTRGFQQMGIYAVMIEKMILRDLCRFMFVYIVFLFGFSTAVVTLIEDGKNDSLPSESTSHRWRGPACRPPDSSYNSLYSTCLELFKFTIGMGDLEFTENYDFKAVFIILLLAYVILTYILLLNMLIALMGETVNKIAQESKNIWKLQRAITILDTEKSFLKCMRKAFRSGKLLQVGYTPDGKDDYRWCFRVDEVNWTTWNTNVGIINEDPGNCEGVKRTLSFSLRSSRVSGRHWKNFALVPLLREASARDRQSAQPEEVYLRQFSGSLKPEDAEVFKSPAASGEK
Experiment: Antagonist activity at human TRPV1 assessed as inhibition of capsaicin-induced calcium influx in HEK293 cells
Assay type: functional, cell-based
Conditions: not given

SMILES | IC50
O=C(NCCc1c[nH]c2ccc(Cl)cc12)c1ccc(OC(F)(F)F)cc1 | 3720 nM
O=C(Nc1ccc(I)cc1)c1ccc(C(=O)C(F)(F)F)cc1 | 790 nM
CC(C)(C)c1ccc2[nH]cc(CCNC(=O)c3ccc(OC(F)(F)F)cc3)c2c1 | > 10000 nM
COc1ccc2[nH]cc(CCNC(=O)c3ccc(OCCN(C)C)cc3)c2c1 | > 10000 nM
CC(=O)c1ccc(C(=O)Nc2ccc(I)cc2)cc1 | > 10000 nM
O=C(Nc1ccc(I)cc1)c1cccc(C(F)(F)F)c1 | > 10000 nM
COc1ccc2[nH]cc(CCNC(=O)c3ccc(-c4ccccc4)nc3)c2c1 | 3940 nM
COc1ccc2[nH]cc(CCNC(=O)c3ccc(OCC(F)(F)F)nc3)c2c1 | 3400 nM
O=C(Nc1ccc(I)cc1)c1ccccc1C(F)(F)F | > 10000 nM
COc1ccc2[nH]c(C)c(C(C)CNC(=O)c3ccc(OC(F)(F)F)cc3)c2c1 (centres undefined) | 5070 nM
COc1ccc2[nH]cc(CCNC(=O)c3ccc(Oc4ccccc4)cc3)c2c1 | 1890 nM
Cc1[nH]c2ccc(O)cc2c1C(C)CNC(=O)c1ccc(OC(F)(F)F)cc1 (centres undefined) | 3280 nM
O=C(NCCc1cccc2ccccc12)c1ccc(OC(F)(F)F)cc1 | 2600 nM
COc1ccc2[nH]cc(CCNC(=O)c3ccc(C4CCCCC4)cc3)c2c1 | 1160 nM
O=C(NCCc1ccnc2ccccc12)c1ccc(OC(F)(F)F)cc1 | > 10000 nM
O=C(NCCN1CCCc2ccccc21)c1ccc(OC(F)(F)F)cc1 | 4600 nM
O=C(NCCC1CCCc2ccccc21)c1ccc(OC(F)(F)F)cc1 (centres undefined) | 5400 nM
O=C(NCCn1ccc2ccccc21)c1ccc(OC(F)(F)F)cc1 | 7300 nM
COc1ccc2c(OC)ccc(CCNC(=O)c3ccc(OC(F)(F)F)cc3)c2c1 | > 10000 nM
COc1ccc2nccc(CCNC(=O)c3ccc(OC(F)(F)F)cc3)c2c1 | > 10000 nM
COc1ccc2c(c1)C(CCNC(=O)c1ccc(OC(F)(F)F)cc1)CCC2 (centres undefined) | 4650 nM
CC(C)(C)c1cc(NC(=O)c2ccc(OC(F)(F)F)cc2)cc(C(C)(C)C)c1 | > 10000 nM
O=C(NCCc1ccnc2ccc(O)cc12)c1ccc(OC(F)(F)F)cc1 | 1230 nM
O=C(NCCN1CCCc2ccc(O)cc21)c1ccc(OC(F)(F)F)cc1 | 960 nM
COc1ccc2cccc(CC(C)NC(=O)c3ccc(OC(F)(F)F)cc3)c2c1 (centres undefined) | 3100 nM
O=C(Nc1ccc(C2CCCCC2)cc1)c1ccc(OC(F)(F)F)cc1 | > 10000 nM
O=C(Nc1ccc(-c2ccccc2)cc1)c1ccc(OC(F)(F)F)cc1 | > 10000 nM
O=C(Nc1ccc(I)cc1)Nc1ccc(C(F)(F)F)cc1 | > 10000 nM

Continued, values first:

IC50 | SMILES
280 nM | O=C(Nc1ccc(I)cc1)c1ccc(OC(F)(F)F)cc1
120 nM | CC(C)(C)c1ccc(NC(=O)c2ccc(OC(F)(F)F)cc2)cc1
400 nM | COc1ccc2[nH]cc(C(C)CNC(=O)c3ccc(OC(F)(F)F)cc3)c2c1 (centres undefined)
220 nM | CC(C)(C)c1ccc(NC(=O)c2ccc(C(F)(F)F)cc2)cc1
550 nM | CC(CNC(=O)c1ccc(OC(F)(F)F)cc1)c1c[nH]c2ccc(O)cc12 (centres undefined)
220 nM | O=C(Nc1ccc(C(F)(F)F)cc1)c1ccc(OC(F)(F)F)cc1
200 nM | O=C(NCC1CCCc2[nH]c3ccc(O)cc3c21)c1ccc(OC(F)(F)F)cc1 (centres undefined)
776 nM | O=C(NCCc1ccccc1Cl)c1ccc(OC(F)(F)F)cc1
150 nM | O=C(NCCc1cccc2ccc(O)cc12)c1ccc(OC(F)(F)F)cc1
76 nM | O=C(NCCc1ccc(O)c2ccc(O)cc12)c1ccc(OC(F)(F)F)cc1
210 nM | O=C(Nc1ccc2c(c1)CCC2)c1ccc(OC(F)(F)F)cc1
70 nM | CC(C)(C)c1ccc(NC(=O)c2ccc(OC(F)(F)C(F)F)cc2)cc1
23 nM | Cn1c2c(c3cc(O)ccc31)C(CNC(=O)c1ccc(OC(F)(F)F)cc1)CCC2 (centres undefined)
14 nM | CC(CNC(=O)c1ccc(OC(F)(F)F)cc1)c1ccc(O)c2ccc(O)cc12 (racemic)

Same assay, conditions: read-out: pA2 (converted)

Kb | SMILES
145 nM | COc1ccc2[nH]cc(C(C)CNC(=O)c3ccc(OC(F)(F)F)cc3)c2c1 (centres undefined)
